Some test systems named below: IGROV-1; OVCAR-8; DU-145; SK-OV-3; CCRF-CEM; OVCAR-3; SK-MEL-2; SW-620; HOP-62; HCT-15; HOP-92; NCI-H23; SF-539; SF-268; Malme-3M; UACC-257; EKVX; SR; SNB-75; HT-29.
Assay in all cases: NCI anticancer screen, dose series, 48 h

Structures are written as SMILES.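 Growth conditions: 96-well plates. Treatment: test compound, 48 hours, 5 concentrations. Analysis: linear interpolation between bracketing concentrations; unreached endpoints set to highest concentration. Abbreviation: GI50, concentration required for 50% inhibition of growth.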 Activity calls are given as the source filed them. Cut-off read from the data, not from the text of the source: active = GI50 up to about 1.1 µM and inactive = higher.

Consider `C=CC(=O)N1C/C(=C\c2ccc(Cl)cc2)C(=O)/C(=C/c2ccc(Cl)cc2)C1`, for which the GI50 with IGROV-1 was 0.353 µM (active); in the assay with OVCAR-8 it was 0.322 µM (active); in the assay on DU-145 it was 0.813 µM (active); with SK-OV-3, 0.656 µM (active); with CCRF-CEM, 0.175 µM (active); in the assay on OVCAR-3 it was 0.31 µM (active). The GI50 was 1.32 µM (inactive) with SK-MEL-2; 0.15 µM (active) in the assay with SW-620; 0.317 µM (active) with HOP-62; 0.182 µM in the assay with HCT-15; 1.54 µM (inactive) in the assay on HOP-92; 0.492 µM (active) with NCI-H23. Also, the GI50 was 0.188 µM (active) in the assay with SF-539; 0.221 µM (active) with SF-268; 0.973 µM (active) in the assay on Malme-3M; 1.19 µM (inactive) in the assay with UACC-257; 0.885 µM (active) in the assay with EKVX; 0.05 µM (active) in the assay with SR. The figures for the GI50 in the assay with SNB-75 and in the assay on HT-29 were 0.405 µM (active) and 0.0989 µM (active), respectively.

Regarding `Nc1nc(O)c2[nH]nnc2n1` [8-AZAGUANINE], the GI50 is 63.8 µM (inactive) in the assay with IGROV-1; 0.551 µM (active) in the assay on OVCAR-8; 0.684 µM (active) in the assay with DU-145; 1.04 µM (active) in the assay with SK-OV-3; 0.242 µM (active) with CCRF-CEM; 16 µM (inactive) in the assay on OVCAR-3. The GI50 in the assay with SK-MEL-2 is 0.074 µM (active); with SW-620 it was 0.306 µM (active); in the assay with HOP-62, 0.326 µM (active); in the assay on HCT-15, 24 µM; in the assay on HOP-92, 0.757 µM (active); in the assay with NCI-H23, 25.1 µM (inactive). The GI50 with SF-539 was 0.361 µM (active); in the assay with SF-268 it was 0.406 µM (active); in the assay with Malme-3M it was 0.352 µM (active); in the assay on UACC-257, 0.735 µM (active); in the assay with EKVX, 11.4 µM (inactive); in the assay on SR it was 2.42 µM (inactive). Also, the figures for the GI50 with SNB-75 and with HT-29 were 1.54 µM (inactive) and 26.1 µM (inactive), respectively.

As to `CC(=O)c1cccc(NC(=O)C(=O)C(c2cnc3ccc([N+](=O)[O-])cc3n2)[N+](=O)[O-])c1` (stereo not given), the GI50 is > 100 µM (inactive) in the assay on IGROV-1; > 100 µM (inactive) in the assay with OVCAR-8; > 100 µM (inactive) in the assay with DU-145; > 100 µM (inactive) with SK-OV-3; 36.4 µM (inactive) with CCRF-CEM; > 100 µM (inactive) in the assay on OVCAR-3. Also, the GI50 with SK-MEL-2 was > 100 µM (inactive); in the assay with SW-620, 52.2 µM (inactive); in the assay with HOP-62, > 100 µM (inactive); in the assay on HCT-15, > 100 µM; with HOP-92, > 100 µM (inactive); in the assay on NCI-H23 it was > 100 µM (inactive). The GI50 with SF-539 was > 100 µM (inactive); with SF-268, > 100 µM (inactive); with Malme-3M, > 100 µM (inactive); in the assay on UACC-257, > 100 µM (inactive); in the assay with EKVX it was > 100 µM (inactive); in the assay with SR, 52.1 µM (inactive). Besides, the GI50 in the assay with SNB-75 and in the assay on HT-29 was > 100 µM (inactive) throughout.

As for `COc1ccc(/C=C/C(=O)c2cc(C(C)(C)C)c(O)c(C(C)(C)C)c2)cc1OC`, the GI50 in the assay with IGROV-1 is 17.7 µM (inactive); in the assay on OVCAR-8, 10.5 µM (inactive); with DU-145, 10 µM (inactive); with SK-OV-3, 18.7 µM (inactive); in the assay with CCRF-CEM it was 2.83 µM (inactive); in the assay on OVCAR-3, 4.97 µM (inactive). In addition, the GI50 in the assay on SK-MEL-2 is 3.48 µM (inactive); in the assay on SW-620, 4.32 µM (inactive); with HOP-62, 23 µM (inactive); in the assay on HCT-15 it was 5.68 µM; in the assay with HOP-92, 16.6 µM (inactive); in the assay with NCI-H23, 12.1 µM (inactive). The GI50 is 12.7 µM (inactive) in the assay on SF-539; 17.9 µM (inactive) with SF-268; 61.2 µM (inactive) with Malme-3M; 5.12 µM (inactive) with UACC-257; 11.2 µM (inactive) with EKVX; 0.551 µM (active) in the assay with SR. In addition, the results for the GI50 with SNB-75 and in the assay on HT-29 were 3.01 µM (inactive) and 4.18 µM (inactive), respectively.

With `COc1c2c3c4c(c(OC)c(=O)c5c(O)cc(OC)c(c6c(OC)cc(O)c(c1=O)c63)c54)C(C(C)O)C2C(C)O` (stereo not given), the GI50 with IGROV-1 was 0.853 µM (active); in the assay on OVCAR-8, 0.449 µM (active); with DU-145, 2.43 µM (inactive); in the assay with SK-OV-3, 1.31 µM (inactive); in the assay on CCRF-CEM it was 0.542 µM (active); in the assay on OVCAR-3, 0.871 µM (active). Also, the GI50 in the assay on SK-MEL-2 is 1.23 µM (inactive); in the assay with SW-620 it was 0.522 µM (active); in the assay on HOP-62 it was 0.689 µM (active); in the assay with HCT-15 it was 1.2 µM; in the assay on HOP-92, 0.421 µM (active); with NCI-H23, 0.798 µM (active). Also, the GI50 is 0.796 µM (active) in the assay with SF-539; 1.07 µM (active) in the assay with SF-268; 1.17 µM (inactive) with Malme-3M; 0.792 µM (active) in the assay with UACC-257; 0.944 µM (active) with EKVX; 1.31 µM (inactive) in the assay on SR. The GI50 in the assay on SNB-75 was 0.518 µM (active); in the assay on HT-29 it was 1.16 µM (inactive).

These data come from ChEMBL document CHEMBL1201862, “PubChem BioAssay data set” (2004).
